Key:
[1] = test system: cGAS activity in THP1 cells; assay: Cellular assay: ISRE-Gaussia luciferase reporter THP1 cells transfected with ISD (Interferon Stimulatory DNA); assay type: cell-based; details: Homo sapiens, THP-1; ISRE-Gaussia luciferase reporter THP1 cells transfected with 2 μg/mL ISD, 16 hours; read-out: THP1-ISD (Inhibition of cGAS activity in THP1 cells, IC50)
Procedure: (§1) A reporter THP1 cell line harboring a gene encoding Gaussia Luciferase under the control of 5 tandem repeats of interferon-stimulated response elements (ISRE) was used to test inhibition of cGAS activity by synthetic compounds in human cells. These cells were plated on 96-well plates at 0.3×10^6/well and incubated with various concentrations of compounds or DMSO for 5 min, followed by transfection of 2 μg/mL of ISD (Interferon Stimulatory DNA, a 45 bp DNA oligo) or mock transfected using lipofectamine 2000 (Life Technology) method, according to manufacturer's instructions. 16 hours later, 15 μL of the media from each well is transferred to a new plate, 50 μL of solution containing 50 mM Hepes-NaOH, 50 mM NaCl, 10 mM EDTA, 1 μM of coeleanterazine was added to each well and luminescence was measured immediately. Fold increase in luminescence compared to mock transfection is plotted against concentrations of each compound, and IC50 is calculated using Graphpad. To evaluate the specificity of a compound, the same procedure was performed except that cells were transfected with 2 μg/mL poly(I:C) or infected with Sendai Virus (SeV) at 50 Unit/mL, which are known to activate the RIG-I-MAVS pathway. A specific inhibitory compound should inhibit interferon induction by DNA but have minimal effect on poly(I:C) or Sendai virus induced interferon reporter gene expression.

[2] = test system: RIG-I-MAVS pathway; assay: Specificity assay: ISRE reporter THP1 cells infected with Sendai Virus (SeV); assay type: cell-based; details: Homo sapiens, THP-1; ISRE-Gaussia luciferase reporter THP1 cells infected with Sendai Virus (SeV) at 50 Unit/mL
Procedure: as §1

[3] = molecular target: T1, recombinant cGAS (aa147-522) (Homo sapiens, UniProt Q8N884); assay: In vitro assay for inhibition of cGAS activity (ATP consumption, Kinase Glo); assay type: biochemical; details: 37° C. 20 minutes, read-out: Activity (Inhibition of cGAS enzyme activity in vitro, IC50)
T1 construct: recombinant cGAS (aa147-522); His6-SUMO (N, cleaved yes); made in house; host or cells: E. coli BL21/pLys
T1 sequence (Q8N884 147-522): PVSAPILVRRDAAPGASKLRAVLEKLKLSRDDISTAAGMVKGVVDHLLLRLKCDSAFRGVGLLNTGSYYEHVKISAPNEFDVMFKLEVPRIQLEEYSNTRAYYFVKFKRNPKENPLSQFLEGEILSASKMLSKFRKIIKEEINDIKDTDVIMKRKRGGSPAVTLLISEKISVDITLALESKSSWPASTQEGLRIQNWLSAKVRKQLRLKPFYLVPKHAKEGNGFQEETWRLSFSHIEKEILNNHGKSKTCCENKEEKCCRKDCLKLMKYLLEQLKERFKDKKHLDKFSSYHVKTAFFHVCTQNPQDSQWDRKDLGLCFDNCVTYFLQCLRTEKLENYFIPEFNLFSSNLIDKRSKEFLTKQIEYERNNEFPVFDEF
Summary of the method: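 Human cGAS (aa147-522) at 1.5 ng/μL incubated with serially diluted compound at 37° C for 20 min; remaining ATP read by Kinase Glo luminescence. IC50 from percent ATP consumption plotted against log compound concentration.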

Row | SMILES | IC50 [1] [nM] | IC50 [2] [µM] | IC50 [3] [nM]
1 | CN1C(=O)S/C(=C\c2cc3c(-c4cnc(N)nc4)c[nH]c3c(F)c2Br)C1=O [ExB40] | 2500 to 10000 | ≥ 10 | ≤ 500
2 | CN1C(=O)S/C(=C\c2cc(OCc3cnc(NCc4ccncc4)nc3)c(O)cc2Br)C1=O [Ex157] | 2500 to 10000 | ≥ 10 | ≤ 500
3 | CC(Oc1cc(/C=C2\SC(=O)N(C)C2=O)c(Br)c(F)c1O)c1cnc(N)nc1C(F)(F)F (stereo not drawn) [ExA7] | 2500 to 10000 | ≥ 10 | ≤ 500
4 | O=C1/C(=C/c2cc(OCc3cnc(NCc4ccncc4)nc3)c(O)cc2Br)Sc2ncccc21 [Ex200] | ≤ 2500 | ≥ 10 | ≤ 500

From patent US12065416B2, “cGAS antagonist compounds” (IMMUNESENSOR THERAPEUTICS, INC., priority 2016, dated 2024)
